From patent US10626144B2, “Peptide derivatives and uses thereof” (Nosopharm, priority 2014, dated 2020)
Numbered stars: 1 amine (or outer) side, 2 acyl side, 3 side chain; on linkers, the order of the positions; unused ones are H or OH. Square brackets hold non-standard residues; d marks the D form. Peptide text beside a SMILES is read from it. * marks the point of attachment. Pro(trans-4-F) = O=C(O)[C@@H]1C[C@@H](F)CN1; Phe(4-Cl) = N[C@@H](Cc1ccc(Cl)cc1)C(=O)O; Phe(3-Me) = Cc1cccc(C[C@H](N)C(=O)O)c1; Dab(3S-OH) = NC[C@H](O)[C@H](N)C(=O)O; X4 = N=C(N)NCC/C=C(/N[*:1])C(=O)[*:2]; Lys(iPr) = CC(C)NCCCC[C@H](N)C(=O)O; ΔZArg = N=C(N)NCC/C=C(\N)C(=O)O; hLys = NCCCCC[C@H](N)C(=O)O; dOrn = NCCC[C@@H](N)C(=O)O; Pip = O=C(O)[C@@H]1CCCCN1; hSer = N[C@@H](CCO)C(=O)O; Aze = O=C(O)[C@@H]1CCN1; Dab = NCC[C@H](N)C(=O)O; NH(CH2)4NH2 = NCCCCN*

Assays:
Experiment in all cases: MIC, broth microdilution (CLSI), reference strain
Details in all cases: CAMHB
[1] = test system: Pseudomonas aeruginosa ATCC 27853
[2] = test system: Escherichia coli ATCC 25922
[3] = test system: Staphylococcus aureus ATCC 13709
[4] = test system: Acinetobacter baumannii ATCC 19606

SMILES | Pa: MIC Pseudomonas aeruginosa ATCC 27853 [1] | Ec: MIC Escherichia coli ATCC 25922 [2] | Sa: MIC Staphylococcus aureus ATCC 13709 [3] | Ab: MIC Acinetobacter baumannii ATCC 19606 [4]
C[C@H](NC(=O)[C@H](CCN)NC(=O)[C@@H](N)CCCCN)C(=O)NCC(=O)N[C@H](CCCN)C(=O)N1CCCC[C@H]1C(=O)N[C@@H](Cc1cnc[nH]1)C(=O)N[C@@H](CCCCN)C(=O)N/C(=C\CCNC(=N)N)C(=O)N[C@@H](CCCCN)C(=O)NCCCCN [14.13] (H-K[Dab]AG[dOrn][Pip]HK[ΔZArg]K-{NH(CH2)4NH2}) | − (>32 μg/mL) | + (≤32 μg/mL) | ++ (≤8 μg/mL) | − (>32 μg/mL)
N=C(N)NCC/C=C(\NC(=O)[C@H](CCCCN)NC(=O)[C@H](Cc1c[nH]c2ccccc12)NC(=O)[C@@H]1CCCN1C(=O)[C@@H](CCCN)NC(=O)CNC(=O)[C@@H](NC(=O)[C@@H](NC(=O)[C@@H](N)CCCCN)[C@@H](O)CN)[C@@H](O)CN)C(=O)O [22.41] (H-K[Dab(3S-OH)][Dab(3S-OH)]G[dOrn]PWK[ΔZArg]-OH) | − (>32 μg/mL) | ++ (≤8 μg/mL) | ++ (≤8 μg/mL) | − (>32 μg/mL)
Cc1cccc(C[C@H](NC(=O)[C@@H]2CCCN2C(=O)[C@@H](CCCN)NC(=O)CNC(=O)[C@@H](NC(=O)[C@@H](NC(=O)[C@@H](N)CCCCN)[C@@H](O)CN)[C@@H](O)CN)C(=O)N[C@@H](CCCCN)C(=O)N/C(=C\CCNC(=N)N)C(=O)O)c1 [22.37] (H-K[Dab(3S-OH)][Dab(3S-OH)]G[dOrn]P[Phe(3-Me)]K[ΔZArg]-OH) | − (>32 μg/mL) | + (≤32 μg/mL) | ++ (≤8 μg/mL) | − (>32 μg/mL)
NCCCCNC(=O)[C@H](CCCCN)NC(=O)[C@@H](CCCN)NC(=O)[C@H](CCCCN)NC(=O)[C@H](Cc1cnc[nH]1)NC(=O)[C@@H]1CCCN1C(=O)[C@@H](CCCN)NC(=O)CNC(=O)[C@@H](NC(=O)[C@@H](NC(=O)[C@@H](N)CCCCN)[C@@H](O)CN)[C@@H](O)CN [22.22] (H-K[Dab(3S-OH)][Dab(3S-OH)]G[dOrn]PHK[dOrn]K-{NH(CH2)4NH2}) | − (>32 μg/mL) | − (>32 μg/mL) | ++ (≤8 μg/mL) | − (>32 μg/mL)
N=C(N)NCC/C=C(\NC(=O)[C@H](CCCCN)NC(=O)[C@H](Cc1cnc[nH]1)NC(=O)[C@@H]1C[C@@H](F)CN1C(=O)[C@@H](CCCN)NC(=O)CNC(=O)[C@@H](NC(=O)[C@@H](NC(=O)[C@@H](N)CCCCN)[C@@H](O)CN)[C@@H](O)CN)C(=O)N[C@@H](CCCCN)C(=O)NCCCCN [22.13] (H-K[Dab(3S-OH)][Dab(3S-OH)]G[dOrn][Pro(trans-4-F)]HK[ΔZArg]K-{NH(CH2)4NH2}) | ++ (≤8 μg/mL) | + (≤32 μg/mL) | ++ (≤8 μg/mL) | − (>32 μg/mL)
CCOC(=O)[C@H](CCCCN)NC(=O)/C(=C/CCNC(=N)N)NC(=O)[C@H](CCCCN)NC(=O)[C@H](Cc1cnc[nH]1)NC(=O)[C@@H]1CCCN1C(=O)[C@@H](CCCN)NC(=O)CNC(=O)[C@@H](NC(=O)[C@@H](NC(=O)[C@@H](N)CCCCN)[C@@H](O)CN)[C@@H](O)CN [22.28] (H-K[Dab(3S-OH)][Dab(3S-OH)]G[dOrn]PHK[ΔZArg]K-OEt) | − (>32 μg/mL) | + (≤32 μg/mL) | ++ (≤8 μg/mL) | − (>32 μg/mL)
N=C(N)NCC/C=C(/NC(=O)[C@H](CCCCN)NC(=O)[C@H](Cc1cnc[nH]1)NC(=O)[C@@H]1CCCN1C(=O)[C@@H](CCCN)NC(=O)CNC(=O)[C@@H](NC(=O)[C@@H](NC(=O)[C@@H](N)CCCCN)[C@@H](O)CN)[C@@H](O)CN)C(=O)N[C@@H](CCCCN)C(=O)NCCCCN [22.7] (H-K[Dab(3S-OH)][Dab(3S-OH)]G[dOrn]PHK[X4]K-{NH(CH2)4NH2}) | ++ (≤8 μg/mL) | ++ (≤8 μg/mL) | ++ (≤8 μg/mL) | + (≤32 μg/mL)

Continued, values first:

Pa: MIC Pseudomonas aeruginosa ATCC 27853 [1] | Ec: MIC Escherichia coli ATCC 25922 [2] | Sa: MIC Staphylococcus aureus ATCC 13709 [3] | Ab: MIC Acinetobacter baumannii ATCC 19606 [4] | SMILES
− (>32 μg/mL) | − (>32 μg/mL) | − (>32 μg/mL) | − (>32 μg/mL) | C[C@H](NC(=O)[C@@H](NC(=O)[C@@H](N)CCCCN)[C@@H](O)CN)C(=O)NCC(=O)N[C@H](CCCN)C(=O)N1CCC[C@H]1C(=O)N[C@@H](CCO)C(=O)N[C@@H](CCCCN)C(=O)N/C(=C\CCNC(=N)N)C(=O)O [24.129] (H-K[Dab(3S-OH)]AG[dOrn]P[hSer]K[ΔZArg]-OH)
− (>32 μg/mL) | + (≤32 μg/mL) | ++ (≤8 μg/mL) | − (>32 μg/mL) | C[C@H](NC(=O)[C@@H](NC(=O)[C@@H](N)CCCCN)[C@@H](O)CN)C(=O)NCC(=O)N[C@H](CCCN)C(=O)N1CC[C@H]1C(=O)N[C@@H](Cc1ccc(Cl)cc1)C(=O)N[C@@H](CCCCN)C(=O)N/C(=C\CCNC(=N)N)C(=O)O [24.72] (H-K[Dab(3S-OH)]AG[dOrn][Aze][Phe(4-Cl)]K[ΔZArg]-OH)
− (>32 μg/mL) | − (>32 μg/mL) | + (≤32 μg/mL) | − (>32 μg/mL) | CC(=O)NCCCC[C@H](N)C(=O)N[C@H](C(=O)N[C@@H](C)C(=O)NCC(=O)N[C@H](CCCN)C(=O)N1CCC[C@H]1C(=O)N[C@@H](Cc1cnc[nH]1)C(=O)N[C@@H](CCCCN)C(=O)N/C(=C\CCNC(=N)N)C(=O)N[C@@H](CCCCN)C(=O)NCCCCN)[C@@H](O)CN [24.9] (H-K(Ac)[Dab(3S-OH)]AG[dOrn]PHK[ΔZArg]K-{NH(CH2)4NH2})
− (>32 μg/mL) | − (>32 μg/mL) | − (>32 μg/mL) | − (>32 μg/mL) | COC[C@H](NC(=O)[C@@H]1CCCN1C(=O)[C@@H](CCCN)NC(=O)CNC(=O)[C@H](C)NC(=O)[C@@H](NC(=O)[C@@H](N)CCCCN)[C@@H](O)CN)C(=O)N[C@@H](CCCCN)C(=O)N/C(=C\CCNC(=N)N)C(=O)O [24.136] (H-K[Dab(3S-OH)]AG[dOrn]PS(Me)K[ΔZArg]-OH)
− (>32 μg/mL) | − (>32 μg/mL) | + (≤32 μg/mL) | − (>32 μg/mL) | N=C(N)NCC/C=C(\NC(=O)[C@H](CCCCN)NC(=O)[C@H](Cc1cnc[nH]1)NC(=O)[C@@H]1CCCN1C(=O)[C@@H](CCCN)NC(=O)CNC(=O)[C@H](Cc1cnc[nH]1)NC(=O)[C@@H](NC(=O)[C@@H](N)CCCCN)[C@@H](O)CN)C(=O)O [214.2] (H-K[Dab(3S-OH)]HG[dOrn]PHK[ΔZArg]-OH)
− (>32 μg/mL) | ++ (≤8 μg/mL) | ++ (≤8 μg/mL) | − (>32 μg/mL) | COC(=O)/C(=C/CCNC(=N)N)NC(=O)[C@H](CCCCN)NC(=O)[C@H](Cc1cnc[nH]1)NC(=O)[C@@H]1CCCN1C(=O)[C@@H](CCCN)NC(=O)CNC(=O)[C@H](C)NC(=O)[C@@H](NC(=O)[C@@H](N)CCCCN)[C@@H](O)CN [24.160] (H-K[Dab(3S-OH)]AG[dOrn]PHK[ΔZArg]-OMe)
− (>32 μg/mL) | ++ (≤8 μg/mL) | ++ (≤8 μg/mL) | − (>32 μg/mL) | C[C@H](NC(=O)/C(=C/CCNC(=N)N)NC(=O)[C@H](CCCCN)NC(=O)[C@H](Cc1cnc[nH]1)NC(=O)[C@@H]1CCCN1C(=O)[C@@H](CCCN)NC(=O)CNC(=O)[C@H](C)NC(=O)[C@@H](NC(=O)[C@@H](N)CCCCN)[C@@H](O)CN)C(N)=O [24.7] (H-K[Dab(3S-OH)]AG[dOrn]PHK[ΔZArg]A-NH2)
− (>32 μg/mL) | + (≤32 μg/mL) | ++ (≤8 μg/mL) | − (>32 μg/mL) | CC(C)NCCCC[C@H](NC(=O)[C@H](Cc1cnc[nH]1)NC(=O)[C@@H]1CCCN1C(=O)[C@@H](CCCN)NC(=O)CNC(=O)[C@H](C)NC(=O)[C@@H](NC(=O)[C@@H](N)CCCCN)[C@@H](O)CN)C(=O)N[C@H](CCCNC(=N)N)C(N)=O [24.127] (H-K[Dab(3S-OH)]AG[dOrn]PH[Lys(iPr)][dR]-NH2)
− (>32 μg/mL) | − (>32 μg/mL) | ++ (≤8 μg/mL) | − (>32 μg/mL) | C[C@H](NC(=O)[C@@H](NC(=O)[C@@H](N)CCCCN)[C@@H](O)CN)C(=O)NCC(=O)N[C@H](CCCN)C(=O)N1CCC[C@H]1C(=O)N[C@@H](CCC(=O)O)C(=O)N[C@@H](CCCCN)C(=O)N/C(=C\CCNC(=N)N)C(=O)N[C@@H](CCCCN)C(=O)NCCCCN [24.118] (H-K[Dab(3S-OH)]AG[dOrn]PEK[ΔZArg]K-{NH(CH2)4NH2})
− (>32 μg/mL) | + (≤32 μg/mL) | ++ (≤8 μg/mL) | − (>32 μg/mL) | C[C@H](NC(=O)[C@@H](NC(=O)[C@@H](N)CCCCCN)[C@@H](O)CN)C(=O)NCC(=O)N[C@H](CCCN)C(=O)N1CCC[C@H]1C(=O)N[C@@H](Cc1cnc[nH]1)C(=O)N[C@@H](CCCCN)C(=O)N/C(=C\CCNC(=N)N)C(N)=O [24.69] (H-[hLys][Dab(3S-OH)]AG[dOrn]PHK[ΔZArg]-NH2)
